Results as given in publication PMC6366420, “Design and synthesis of 4-piperazinyl quinoline derived urea/thioureas for anti-breast cancer activity by a hybrid pharmacophore approach” (Journal of Enzyme Inhibition and Medicinal Chemistry, 2019).
Like-named read-outs stand apart in the source and are kept apart here.

Columns and labels:
MDA-MB231 = assay: SRB antiproliferative assay, MDA-MB231; format: cell-based, human; conditions: read-out: GI50 MDA-MB231
Experimental: (§1) The human breast cancer cell lines MDA-MB468, MDA-MB231 and MCF-7 were purchased from ATCC and maintained in RPMI 1640 medium supplemented with 10% fetal bovine serum (Hyclone, Logan UT) and 2 mM L-glutamine. MCF10A and 184B5 immortalised breast cells were purchased from ATCC and maintained in mammary epithelial basal medium supplemented with an MEGM mammary epithelial singlequot kit (Cambrex). Cells were grown at 37 °C with 5% CO2, 95% air under the humidified conditions. Cell line authentication was carried out by Genetica DNA Laboratories (Burlington, NC) using a short tandem repeat profiling method (March 2015; July 2015; September 2016).
(§2) Cell cytotoxic effects were determined by a SRB-based protocol[2]^,[25].
(§3) The newly synthesised 4-piperazinylquinoline compounds (5–30) were evaluated for their antiproliferative effects using three breast cancer cell lines, for which the compounds were diluted to achieve seven different concentrations ranging from […]. Followed by 48 h incubation with the compound, cells were treated with sulforhodamine B (SRB) to measure their growth/viability (% of the untreated control) by spectrophotometer. The total cellular macromolecules levels known to accurately reflect by UV reading of SRB staining. […] The reference compounds CQ and cisplatin were included for the comparison.

MDA-MB468 = assay: SRB antiproliferative assay, MDA-MB468; format: cell-based, human; conditions: read-out: GI50 MDA-MB468
Experimental: as §1, §2, §3

MCF7 = assay: SRB antiproliferative assay, MCF7; format: cell-based, human; conditions: read-out: GI50 MCF7
Experimental: as §1, §2, §3

184B5 = assay: SRB antiproliferative assay, 184B5 non-cancer breast cells; format: cell-based, human; conditions: read-out: GI50 184B5
Experimental: as §1, §2, §3
(§4) We further assessed their antiproliferative effects on two non-cancer immortalised cell lines (184B5 and MCF10A). […] The antiproliferative effects of compound 23 on cancer cells are thus 7-fold (MDA-MB468 vs MCF10A) to 11-fold (MDA-MB231 vs 184B5) higher than matching non-cancer breast cells, which may indicate that compound 23 could potentially be safer than other compounds. Therefore, we examined it further to gain insights into its molecular mechanism of action.

MCF10A = assay: SRB antiproliferative assay, MCF10A non-cancer breast cells; format: cell-based, human; conditions: read-out: GI50 MCF10A
Experimental: as §1, §2, §3, §4

[1] = system: breast cancer and non-cancer breast cell lines; assay: SRB antiproliferative comparison of breast cancer and non-cancer breast cell lines; format: cell-based, human; conditions: for antigrowth effect against cancer versus non-cancer cells (in words): three breast cancer lines vs 184B5 and MCF10A
Experimental: as §1, §2, §3, §4

[2] = Homo sapiens, MDA-MB-231, 48 h, SRB, 48 h incubation, MDA-MB231 triple-negative breast cancer cells
[3] = Homo sapiens, MDA-MB-468, 48 h, SRB, 48 h incubation, MDA-MB468 breast cancer cells
[4] = Homo sapiens, SRB, 48 h incubation, MCF7 breast cancer cells
[5] = Homo sapiens, SRB, 48 h incubation, 184B5 non-cancer immortalised breast cells
[6] = Homo sapiens, MCF-10A, SRB, 48 h incubation, MCF10A non-cancer immortalised breast cells

| GI50 (MDA-MB231; [2]) [µM] | GI50 (MDA-MB468; [3]) [µM] | GI50 (MCF7; [4]) [µM] | melting point [°C] | GI50 (MDA-MB231; Homo sapiens, MDA-MB-231, 48 h) [µM] | GI50 (MDA-MB468; Homo sapiens, MDA-MB-468, 48 h) [µM] | GI50 (MCF7; Homo sapiens, MCF7, 48 h) [µM] | Structure (SMILES) | GI50 (184B5; [5]) [µM] | GI50 (MCF10A; [6]) [µM] | antigrowth effect against cancer versus non-cancer cells (in words) [1] | higher activity than the reference compounds cisplatin and CQ ([1]; breast cancer cell lines, GI50 comparison) | GI50 (184B5; Homo sapiens, 184B5, 48 h) [µM] | GI50 (MCF10A; Homo sapiens, MCF-10A, 48 h) [µM] | GI50 (MDA-MB231; SRB, 48 h incubation, MDA-MB231 triple-negative breast cancer cells) [µM] | GI50 (MDA-MB468; SRB, 48 h incubation, MDA-MB468 breast cancer cells) [µM] | GI50 (MCF7; SRB, 48 h incubation, MCF7 breast cancer cells) [µM] | GI50 (184B5; SRB, 48 h incubation, 184B5 non-cancer immortalised breast cells) [µM] | GI50 (MCF10A; SRB, 48 h incubation, MCF10A non-cancer immortalised breast cells) [µM] |
| --- | --- | --- | --- | --- | --- | --- | --- | --- | --- | --- | --- | --- | --- | --- | --- | --- | --- | --- |
| 21.8 ± 1.5 | 19.8 ± 0.8 | 16.6 ± 1.2 |  |  |  |  | O=C(Nc1ccc(C(F)(F)F)cc1)N1CCN(c2ccnc3cc(Cl)ccc23)CC1 [Compound 7, 4-(7-Chloro-quinolin-4-yl)-piperazine-1-carboxylic acid (4-trifluoromethyl-phenyl)-amide] | 4.7 ± 0.3 | 4.6 ± 0.3 | higher activity against non-cancer cells than cancer cells |  |  |  |  |  |  |  |  |
| 20.8 ± 1.3 | 10.9 ± 0.8 | 6 ± 0.5 | 112 to 113 |  |  |  | O=C(NC1CCCCC1)N1CCN(c2ccnc3cc(Cl)ccc23)CC1 [Compound 10, 4-(7-Chloro-quinolin-4-yl)-piperazine-1-carboxylic acid cyclohexylamide] | 16.3 ± 1 | 15.7 ± 1.3 | comparable against cancer and non-cancer cells |  |  |  |  |  |  |  |  |
| 29.1 ± 1.7 | 30.4 ± 2 | 23.7 ± 2.4 | 168 to 169 |  |  |  | O=C(Nc1c(Cl)cc(Cl)cc1Cl)N1CCN(c2ccnc3cc(Cl)ccc23)CC1 [Compound 8, 4-(7-Chloro-quinolin-4-yl)-piperazine-1-carboxylic acid (2,4,6-trichloro-phenyl)-amide] | 22.3 ± 1.7 | 23.7 ± 1 | comparable against cancer and non-cancer cells |  |  |  |  |  |  |  |  |
| 50.6 ± 3.2 | 35.5 ± 1.3 | 28.9 ± 1.4 | 118 to 119 |  |  |  | Cc1ccc(C)c(NC(=O)N2CCN(c3ccnc4cc(Cl)ccc34)CC2)c1 [Compound 6, 4-(7-Chloro-quinolin-4-yl)-piperazine-1-carboxylic acid (2,5-dimethyl-phenyl)-amide] | 19.8 ± 1 | 18.8 ± 1.3 | higher activity against non-cancer cells than cancer cells |  |  |  |  |  |  |  |  |
| 20.8 ± 2.3 | 12.7 ± 0.5 | 4.9 ± 0.3 | 132 to 133 |  |  |  | O=C(NC1CCCCC1)N1CCN(c2ccnc3cc(C(F)(F)F)ccc23)CC1 [Compound 16, 4-(7-Trifluoromethyl-quinolin-4-yl)-piperazine-1-carboxylic acid cyclohexylamide] | 20.8 ± 1.4 | 20.9 ± 1 | comparable against cancer and non-cancer cells |  |  |  |  |  |  |  |  |
| 22.6 ± 1.4 | 33.1 ± 1.5 | 20.4 ± 0.9 | 145 to 146 |  |  |  | S=C(Nc1ccc(Cl)cc1)N1CCN(c2ccnc3cc(Cl)ccc23)CC1 [Compound 20, 4-(7-Chloro-quinolin-4-yl)-piperazine-1-carbothioic acid (4-chloro-phenyl)-amide] | 14.4 ± 0.6 | 8.8 ± 0.7 | higher activity against non-cancer cells than cancer cells |  |  |  |  |  |  |  |  |
| 9.6 ± 0.5 | 7.8 ± 0.8 | 7.3 ± 0.5 | 138 to 139 |  |  |  | Cc1cccc(C)c1NC(=S)N1CCN(c2ccnc3cc(Cl)ccc23)CC1 [Compound 18, 4-(7-Chloro-quinolin-4-yl)-piperazine-1-carbothioic acid (2,6-dimethyl-phenyl)-amide] | 16.7 ± 1 | 52.3 ± 2.9 | much stronger activities against cancer than non-cancer cells |  |  |  |  |  |  |  |  |
| 21.1 ± 1.3 | 22.5 ± 0.2 | 12.6 ± 1.2 | 142 to 143 |  |  |  | O=C(Nc1c(Cl)cc(Cl)cc1Cl)N1CCN(c2ccnc3cc(C(F)(F)F)ccc23)CC1 [Compound 14, 4-(7-Trifluoromethyl-quinolin-4-yl)-piperazine-1-carboxylic acid (2,4,6-trichloro-phenyl)-amide] | 33.2 ± 2.1 | 17.4 ± 0.5 | comparable against cancer and non-cancer cells |  |  |  |  |  |  |  |  |

Further lines, the compound ahead of its results:

| Structure (SMILES) | GI50 (MDA-MB231; [2]) [µM] | GI50 (MDA-MB468; [3]) [µM] | GI50 (MCF7; [4]) [µM] | melting point [°C] | GI50 (MDA-MB231; Homo sapiens, MDA-MB-231, 48 h) [µM] | GI50 (MDA-MB468; Homo sapiens, MDA-MB-468, 48 h) [µM] | GI50 (MCF7; Homo sapiens, MCF7, 48 h) [µM] | GI50 (184B5; [5]) [µM] | GI50 (MCF10A; [6]) [µM] | antigrowth effect against cancer versus non-cancer cells (in words) [1] | higher activity than the reference compounds cisplatin and CQ ([1]; breast cancer cell lines, GI50 comparison) | GI50 (184B5; Homo sapiens, 184B5, 48 h) [µM] | GI50 (MCF10A; Homo sapiens, MCF-10A, 48 h) [µM] | GI50 (MDA-MB231; SRB, 48 h incubation, MDA-MB231 triple-negative breast cancer cells) [µM] | GI50 (MDA-MB468; SRB, 48 h incubation, MDA-MB468 breast cancer cells) [µM] | GI50 (MCF7; SRB, 48 h incubation, MCF7 breast cancer cells) [µM] | GI50 (184B5; SRB, 48 h incubation, 184B5 non-cancer immortalised breast cells) [µM] | GI50 (MCF10A; SRB, 48 h incubation, MCF10A non-cancer immortalised breast cells) [µM] |
| --- | --- | --- | --- | --- | --- | --- | --- | --- | --- | --- | --- | --- | --- | --- | --- | --- | --- | --- |
| FC(F)(F)c1ccc(NC(=S)N2CCN(c3ccnc4cc(C(F)(F)F)ccc34)CC2)cc1 [Compound 26, 4-(7-Trifluoromethyl-quinolin-4-yl)-piperazine-1-carbothioic acid (4-trifluoromethyl-phenyl)-amide] | 16.5 ± 1.2 | 23.4 ± 0.9 | 3.8 ± 0.3 | 123 to 124 |  |  |  | 8.8 ± 0.6 | 10.7 ± 2 | comparable against cancer and non-cancer cells |  |  |  |  |  |  |  |  |
| O=C(Nc1ccc(C(F)(F)F)cc1)N1CCN(c2ccnc3cc(C(F)(F)F)ccc23)CC1 [Compound 13, 4-(7-Trifluoromethyl-quinolin-4-yl)-piperazine-1-carboxylic acid (4-trifluoromethyl-phenyl)-amide] | 15.3 ± 1.3 | 2.7 ± 0.1 | 2 ± 0.1 | 154 to 155 |  |  |  | 1.1 ± 0.1 | 1 ± 0.1 | higher activity against non-cancer cells than cancer cells |  |  |  |  |  |  |  |  |
| FC(F)(F)c1ccc2c(N3CCN(C(=S)Nc4cccc5ccccc45)CC3)ccnc2c1 [Compound 29, 4-(7-Trifluoromethyl-quinolin-4-yl)-piperazine-1-carbothioic acid naphthalen-1-ylamide] | 9.8 ± 1 | 9.4 ± 0.8 | 6.4 ± 0.7 | 137 to 138 |  |  |  | 50.6 ± 3.8 | 69.4 ± 3.7 | much stronger activities against cancer than non-cancer cells | 4-8 fold |  |  |  |  |  |  |  |
| FC(F)(F)c1ccc2c(N3CCN(C(=S)Nc4c(Cl)cc(Cl)cc4Cl)CC3)ccnc2c1 [Compound 28, 4-(7-Trifluoromethyl-quinolin-4-yl)-piperazine-1-carbothioic acid (2,4,6-trichloro-phenyl)-amide] | 12.2 ± 0.9 | 23.4 ± 1.9 | 11.8 ± 1 | 112 to 114 |  |  |  | 5.5 ± 0.5 | 8.2 ± 0.7 | higher activity against non-cancer cells than cancer cells |  |  |  |  |  |  |  |  |
| S=C(Nc1cccc2ccccc12)N1CCN(c2ccnc3cc(Cl)ccc23)CC1 [Compound 22, 4-(7-Chloro-quinolin-4-yl)-piperazine-1-carbothioic acid naphthalen-1-ylamide] | 19.8 ± 1.1 | 10 ± 0.9 | 30.1 ± 1.2 | 107 to 108 |  |  |  | 17.8 ± 0.6 | 13.3 ± 1 | comparable against cancer and non-cancer cells |  |  |  |  |  |  |  |  |
| O=C(Nc1cccc2ccccc12)N1CCN(c2ccnc3cc(C(F)(F)F)ccc23)CC1 [Compound 15, 4-(7-Trifluoromethyl-quinolin-4-yl)-piperazine-1-carboxylic acid naphthalen-1-ylamide] | 17.8 ± 1 | 9.6 ± 0.9 | 7.5 ± 0.6 | 127 to 128 |  |  |  | 27.9 ± 1.7 | 11.1 ± 0.9 | comparable against cancer and non-cancer cells |  |  |  |  |  |  |  |  |
| CCN(CC)CCCC(C)Nc1ccnc2cc(Cl)ccc12 (stereo not drawn) [CQ, Chloroquine, reference compound] |  |  |  |  | 22.5 ± 1.4 | 28.6 ± 0.2 | 38.4 ± 0.3 |  |  |  |  | 76.1 ± 0.2 | 81.3 ± 1.4 |  |  |  |  |  |
| N.N.[Cl][Pt][Cl] [Cisplatin, reference compound] |  |  |  |  |  |  |  |  |  |  |  |  |  | 23.6 ± 0.2 | 31 ± 0.3 | 25.8 ± 0.7 | 25.5 ± 0.6 | 51.5 ± 0.6 |
